Tests used:
[1] = tested on: mouse hepatic fibrosis model induced by CCl4; experiment: Mouse hepatic fibrosis model induced by carbon tetrachloride (CCl4); assay type: in vivo; conditions: gavage 5 mg/kg once a day, 6 weeks
Experimental: Mouse hepatic fibrosis model: male C577BL/6 mice (8-week old) were used with 8 in each group and were injected intra-abdominally with 0.2 ml (diluted by olive oil) of 10% CCl4 twice a week; and a control group was injected intra-abdominally with an equal volume of olive oil for 18 consecutive weeks.

[2] = tested on: chronic lymphocytic leukemia; conditions: phase II clinical trials of chronic lymphocytic leukemia; cited from earlier work

What does the source list for `c1cn2cc(-c3ccc4cn[nH]c4c3)nc(Nc3ccc(N4CCOCC4)cc3)c2n1` [GS-9973, Entospletinib]?
generation of hepatic collagen (Sirius Red staining) [1]: remarkably inhibit; effective rate [2]: 91%
